This is an account of results in ChEMBL document CHEMBL1137765, “Design and synthesis of novel chloramphenicol amine derivatives as potent aminopeptidase N (APN/CD13) inhibitors” (Bioorg Med Chem, 2009).

One assay concerns the target T1, Aminopeptidase N (Sus scrofa, UniProt P15145).
T1 sequence (P15145 whole entry): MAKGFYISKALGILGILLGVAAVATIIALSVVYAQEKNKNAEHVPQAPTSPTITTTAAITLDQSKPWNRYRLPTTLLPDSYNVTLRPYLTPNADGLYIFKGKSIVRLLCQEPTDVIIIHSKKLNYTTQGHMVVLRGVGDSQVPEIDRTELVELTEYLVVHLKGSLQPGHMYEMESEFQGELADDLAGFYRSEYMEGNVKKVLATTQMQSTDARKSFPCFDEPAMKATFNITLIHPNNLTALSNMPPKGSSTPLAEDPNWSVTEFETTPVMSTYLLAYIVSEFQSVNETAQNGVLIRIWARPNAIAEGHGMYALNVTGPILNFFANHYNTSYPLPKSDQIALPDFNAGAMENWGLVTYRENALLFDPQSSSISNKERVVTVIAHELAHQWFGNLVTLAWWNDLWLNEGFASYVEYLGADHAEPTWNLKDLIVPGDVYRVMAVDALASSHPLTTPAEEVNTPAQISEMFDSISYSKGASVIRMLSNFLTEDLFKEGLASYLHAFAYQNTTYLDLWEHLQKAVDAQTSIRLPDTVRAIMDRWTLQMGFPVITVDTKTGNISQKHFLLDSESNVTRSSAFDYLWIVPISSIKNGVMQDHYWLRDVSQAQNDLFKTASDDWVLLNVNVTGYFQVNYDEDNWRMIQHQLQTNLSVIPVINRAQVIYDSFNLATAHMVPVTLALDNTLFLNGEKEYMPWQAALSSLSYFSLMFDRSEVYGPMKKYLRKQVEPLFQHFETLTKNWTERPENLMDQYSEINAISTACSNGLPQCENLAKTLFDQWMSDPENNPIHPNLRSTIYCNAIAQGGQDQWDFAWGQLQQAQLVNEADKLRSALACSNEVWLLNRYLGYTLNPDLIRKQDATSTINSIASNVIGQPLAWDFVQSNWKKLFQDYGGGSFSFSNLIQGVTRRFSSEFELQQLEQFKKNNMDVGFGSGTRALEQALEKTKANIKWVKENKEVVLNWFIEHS
The assay can be described thus: Inhibition of pig kidney microsomal Aminopeptidase N.
Details: not given
For `N[C@@H](C(=O)NCCc1ccccc1)[C@@H](O)c1ccc([N+](=O)[O-])cc1`, the midpoint of inhibition, the IC50, lay at 106 µM.

In turn, `N[C@@H](C(=O)NCCc1ccc2c(c1)OCO2)[C@@H](O)c1ccc([N+](=O)[O-])cc1` came in with an IC50 of 90.3 µM. On to `CCCCCNC(=O)[C@H](N)[C@@H](O)c1ccc([N+](=O)[O-])cc1`, for which the midpoint of inhibition, the IC50, lay at 522 µM. Still for that read-out and setting: the result for `N[C@@H](C(=O)NCc1ccc(F)cc1)[C@@H](O)c1ccc([N+](=O)[O-])cc1` reads 302 µM; that for `CC(C)C[C@H](NC(=O)[C@H](N)[C@@H](O)c1ccc([N+](=O)[O-])cc1)C(=O)N[C@@H](Cc1ccccc1)C(=O)O`, 34.6 µM. `N[C@@H](C(=O)NCCCCCC(=O)O)[C@@H](O)c1ccc([N+](=O)[O-])cc1` gave an IC50 of 1390 µM. `N[C@@H](C(=O)N[C@@H](Cc1ccccc1)C(=O)N[C@@H](Cc1ccccc1)C(=O)O)[C@@H](O)c1ccc([N+](=O)[O-])cc1` had an IC50 of 7.1 µM. The same measure, in the same setting: under `CCCNC(=O)[C@H](N)[C@@H](O)c1ccc([N+](=O)[O-])cc1` stands 183 µM; under `CC(C)[C@H](NC(=O)[C@H](N)[C@@H](O)c1ccc([N+](=O)[O-])cc1)C(=O)O`, 160 µM; under `N[C@@H](C(=O)NC1CCCCC1)[C@@H](O)c1ccc([N+](=O)[O-])cc1`, 251 µM. The same measure, in the same setting: the result for `N[C@@H](C(=O)O)[C@@H](O)c1ccc([N+](=O)[O-])cc1` reads 140 µM; that for `N[C@@H](C(=O)NCCc1ccc(O)cc1)[C@@H](O)c1ccc([N+](=O)[O-])cc1`, 51.4 µM; that for `N[C@@H](C(=O)N[C@@H](Cc1ccccc1)C(=O)NO)[C@@H](O)c1ccc([N+](=O)[O-])cc1`, 31.3 µM. With `N[C@@H](C(=O)NCc1ccccc1)[C@@H](O)c1ccc([N+](=O)[O-])cc1`, half-maximal inhibition (IC50) was put at 170 µM. On the same count and under the same terms, under `N[C@@H](C(=O)NCCCC(=O)O)[C@@H](O)c1ccc([N+](=O)[O-])cc1` stands 2890 µM; under `CCCCNC(=O)[C@H](N)[C@@H](O)c1ccc([N+](=O)[O-])cc1`, 233 µM; under `CC(C)NC(=O)[C@H](N)[C@@H](O)c1ccc([N+](=O)[O-])cc1`, 251 µM. On the same count and under the same terms, the result for `COc1ccc(CNC(=O)[C@H](N)[C@@H](O)c2ccc([N+](=O)[O-])cc2)cc1` reads 145 µM; that for `CC(C)C[C@H](NC(=O)[C@H](N)[C@@H](O)c1ccc([N+](=O)[O-])cc1)C(=O)O`, 85.6 µM.

In turn, `N[C@@H](C(=O)N[C@@H](Cc1cc2ccccc2[nH]1)C(=O)O)[C@@H](O)c1ccc([N+](=O)[O-])cc1` returned an IC50 of 162 µM.

Regarding `CC(C)C[C@H](NC(=O)[C@H](N)[C@@H](O)c1ccc([N+](=O)[O-])cc1)C(=O)NO`, half-maximal inhibition (IC50) was put at 54 µM.

As to `N[C@@H](C(=O)N[C@H](CO)Cc1ccccc1)[C@@H](O)c1ccc([N+](=O)[O-])cc1`, it took 116 µM to reach half-maximal inhibition (IC50). Still for that read-out and setting: the result for `N[C@@H](C(=O)NCCc1ccccc1Cl)[C@@H](O)c1ccc([N+](=O)[O-])cc1` reads 137 µM. As for `N[C@@H](C(=O)N[C@@H](Cc1ccccc1)C(=O)O)[C@@H](O)c1ccc([N+](=O)[O-])cc1`, the IC50 was determined as 60.4 µM.

The next assay deals with HL-60. The assay can be described thus: cells. As to conditions: Homo sapiens, HL-60, 48 h.
Description: Antiproliferative activity against human HL60 cells after 48 hrs by MTT assay
Turning to `CC(C)C[C@H](NC(=O)[C@H](N)[C@@H](O)c1ccc([N+](=O)[O-])cc1)C(=O)N[C@@H](Cc1ccccc1)C(=O)O`, the IC50 stood at 2020 µM. The same measure, in the same setting: under `N[C@@H](C(=O)N[C@@H](Cc1ccccc1)C(=O)N[C@@H](Cc1ccccc1)C(=O)O)[C@@H](O)c1ccc([N+](=O)[O-])cc1` stands 2210 µM; under `CC(C)C[C@H](NC(=O)[C@@H](O)[C@H](N)Cc1ccccc1)C(=O)O` [UBENIMEX], 1650 µM.
